# Source: publication PMC11412156 (Journal of medicinal chemistry, 2024)
# How the values were obtained:
# [1] = biological target: T1, HsEH (Homo sapiens, UniProt P34913); assay: fluorescent-based sEH assay with PHOME as substrate; format: biochemical
# T1 sequence (P34913 1-555): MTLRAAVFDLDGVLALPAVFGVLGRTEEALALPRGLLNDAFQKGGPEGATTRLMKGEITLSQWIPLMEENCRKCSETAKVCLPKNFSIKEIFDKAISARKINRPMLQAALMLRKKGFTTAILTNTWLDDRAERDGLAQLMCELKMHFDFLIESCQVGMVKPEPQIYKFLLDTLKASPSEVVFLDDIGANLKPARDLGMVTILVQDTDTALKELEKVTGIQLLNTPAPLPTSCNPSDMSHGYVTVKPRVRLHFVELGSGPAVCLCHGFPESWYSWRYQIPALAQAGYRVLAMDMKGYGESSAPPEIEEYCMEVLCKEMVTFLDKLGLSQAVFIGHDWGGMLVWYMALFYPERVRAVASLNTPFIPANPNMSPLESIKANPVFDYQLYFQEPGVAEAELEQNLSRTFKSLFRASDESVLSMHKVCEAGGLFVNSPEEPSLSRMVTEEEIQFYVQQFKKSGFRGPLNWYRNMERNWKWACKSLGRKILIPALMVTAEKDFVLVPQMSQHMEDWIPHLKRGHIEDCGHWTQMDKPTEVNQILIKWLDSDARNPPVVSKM
# [2] = biological target: T2, MsEH (Mus musculus, UniProt P34914); assay: as above; format: biochemical
# T2 sequence (P34914 1-554): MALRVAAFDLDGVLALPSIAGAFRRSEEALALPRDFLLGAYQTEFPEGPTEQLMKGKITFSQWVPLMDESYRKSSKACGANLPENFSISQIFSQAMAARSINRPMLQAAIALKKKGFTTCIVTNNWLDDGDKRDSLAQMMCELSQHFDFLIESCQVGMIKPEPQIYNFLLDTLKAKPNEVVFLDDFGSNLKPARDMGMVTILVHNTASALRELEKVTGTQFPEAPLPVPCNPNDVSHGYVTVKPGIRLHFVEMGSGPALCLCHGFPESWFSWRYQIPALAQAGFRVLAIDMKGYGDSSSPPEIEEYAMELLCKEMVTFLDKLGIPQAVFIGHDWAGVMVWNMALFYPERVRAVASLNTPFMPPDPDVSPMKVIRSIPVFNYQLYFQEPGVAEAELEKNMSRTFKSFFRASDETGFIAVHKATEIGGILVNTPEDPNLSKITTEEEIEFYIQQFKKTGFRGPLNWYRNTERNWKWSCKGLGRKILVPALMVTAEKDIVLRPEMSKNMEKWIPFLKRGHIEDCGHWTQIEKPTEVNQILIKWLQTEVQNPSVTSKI
# [3] = biological target: T3, HDAC6 (Homo sapiens, UniProt Q9UBN7); assay: HDAC enzyme-based fluorogenic assay, HDAC6; format: biochemical; conditions: final concentration of 2 μM, preliminary screen
# T3 sequence (Q9UBN7 1-1215): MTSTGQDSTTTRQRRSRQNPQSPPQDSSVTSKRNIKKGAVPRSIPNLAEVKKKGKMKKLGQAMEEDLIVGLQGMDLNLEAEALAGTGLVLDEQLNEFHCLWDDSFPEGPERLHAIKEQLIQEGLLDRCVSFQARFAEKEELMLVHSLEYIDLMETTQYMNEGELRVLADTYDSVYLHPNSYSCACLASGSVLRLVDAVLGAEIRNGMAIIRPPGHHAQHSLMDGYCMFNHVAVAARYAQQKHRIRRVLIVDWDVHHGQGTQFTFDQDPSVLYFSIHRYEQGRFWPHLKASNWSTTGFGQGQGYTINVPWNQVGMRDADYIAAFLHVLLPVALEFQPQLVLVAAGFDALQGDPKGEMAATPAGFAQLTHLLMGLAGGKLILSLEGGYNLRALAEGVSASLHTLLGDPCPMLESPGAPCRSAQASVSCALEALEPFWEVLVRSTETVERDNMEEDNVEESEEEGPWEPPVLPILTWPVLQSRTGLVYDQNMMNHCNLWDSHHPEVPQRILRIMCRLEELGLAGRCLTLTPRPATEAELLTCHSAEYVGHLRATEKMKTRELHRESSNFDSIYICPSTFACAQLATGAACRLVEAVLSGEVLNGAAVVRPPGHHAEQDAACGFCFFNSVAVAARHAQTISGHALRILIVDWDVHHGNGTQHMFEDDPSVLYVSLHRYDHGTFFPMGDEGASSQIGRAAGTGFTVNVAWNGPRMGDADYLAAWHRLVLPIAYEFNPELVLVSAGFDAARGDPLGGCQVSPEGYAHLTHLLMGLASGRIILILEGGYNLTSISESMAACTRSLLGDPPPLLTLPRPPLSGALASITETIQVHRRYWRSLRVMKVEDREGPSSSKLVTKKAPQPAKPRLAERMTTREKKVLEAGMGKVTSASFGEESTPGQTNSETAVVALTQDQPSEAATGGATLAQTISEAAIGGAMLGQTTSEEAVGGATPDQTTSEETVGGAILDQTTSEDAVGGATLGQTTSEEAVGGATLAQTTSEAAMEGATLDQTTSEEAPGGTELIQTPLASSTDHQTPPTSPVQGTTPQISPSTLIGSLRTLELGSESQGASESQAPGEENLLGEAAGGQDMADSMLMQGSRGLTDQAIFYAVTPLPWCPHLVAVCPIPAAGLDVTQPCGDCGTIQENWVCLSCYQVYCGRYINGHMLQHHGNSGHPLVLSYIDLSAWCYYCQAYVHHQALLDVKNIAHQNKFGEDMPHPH
# [4] = In vitro metabolic stability in rat liver microsomes; format: in vitro ADME; conditions: for metabolic stability in RLM, column 0: incubation 0 min; for metabolic stability in RLM, column 0 / metabolic stability in RLM, column 10 / metabolic stability in RLM, column 30 / metabolic stability in RLM, column 45 / metabolic stability in RLM, column 60: 37 °C, NADPH; for metabolic stability in RLM, column 10: incubation 10 min; for metabolic stability in RLM, column 30: incubation 30 min; for metabolic stability in RLM, column 45: incubation 45 min; for metabolic stability in RLM, column 60: incubation 60 min; for t1/2 in RLM: rat liver microsomes
# [5] = tested on: xylene-induced ear swelling inflammation in mice; assay: Xylene-induced ear swelling inflammation model in mice; format: in vivo, Kunming mice; conditions: Table 7 dose study, 10 mg/kg by gavage for 7 days
# [6] = tested on: formalin-induced inflammatory pain in mice; assay: Formalin-induced inflammatory pain model in mice; format: in vivo, Kunming mice; conditions: dose study, Figure 15; 10 mg/kg, compared with the model group
compound,measurement,setting,value
"O=C(CCCCCCNC(=O)[C@H]1CCCN(C(=O)c2ccc(NC(=O)Nc3ccc(F)c(Cl)c3)c(F)c2)C1)NO [Compound 28e, (S)-1-(4-(3-(3-Chloro-4-fluorophenyl)ureido)-3-fluorobenzoyl)-N-(7-(hydroxyamino)-7-oxoheptyl)piperidine-3-carboxamide]",IC50,[1],0.7 nM
same,IC50,[2],5.4 nM
"O=C(CCCCCCNC(=O)[C@H]1CCCN(C(=O)c2ccc(NC(=O)Nc3ccc(OC(F)(F)F)c(F)c3)c(F)c2)C1)NO [Compound 28a, (S)-1-(3-Fluoro-4-(3-(3-fluoro-4-(trifluoromethoxy)phenyl)ureido)benzoyl)-N-(7-(hyd-roxyamino)-7-oxoheptyl)piperidine-3-carboxamide]",HDAC6 inhibitor rate,[3],> 91%
"Cc1cc(NC(=O)Nc2ccc(C(=O)N3CCC[C@H](C(=O)NCCCCCCC(=O)NO)C3)cc2F)ccc1F [Compound 28i, (S)-1-(3-Fluoro-4-(3-(4-fluoro-3-methylphenyl)ureido)benzoyl)-N-(7-(hydroxyamino)-7-oxoheptyl)piperidine-3-carboxamide]",IC50,[1],1.2 nM
same,IC50,[2],7.7 nM
"O=C(CCCCCCNC(=O)[C@H]1CCCN(C(=O)c2ccc(NC(=O)NC(c3ccccc3)c3ccccc3)c(F)c2)C1)NO [Compound 28k, (S)-1-(4-(3-Benzhydrylureido)-3-fluorobenzoyl)-N-(7-(hydroxyamino)-7-oxoheptyl) piperidine-3-carboxamide]",HDAC6 inhibitor rate,[3],63.58%
"CC12CC3CC(C)(C1)CC(Nc1c(Nc4ccc(CN5CCC[C@H](C(=O)NCCCCCCC(=O)NO)C5)cc4F)c(=O)c1=O)(C3)C2 [Compound 34d, (S)-1-(4-((2-(((1r,3R,5S,7r)-3,5-Dimethyladamantan-1-yl)amino)-3,4-dioxocyclobut-1-en-1-yl)amino)-3-fluorobenzyl)-N-(7-(hydroxyamino)-7-oxoheptyl)piperidine-3-carb-oxamide]","metabolic stability in RLM, column 0",[4],100.00
same,"metabolic stability in RLM, column 10",[4],82.82
same,"metabolic stability in RLM, column 30",[4],73.29
same,"metabolic stability in RLM, column 45",[4],66.27
same,"metabolic stability in RLM, column 60",[4],50.51
same,t1/2 in RLM,[4],1.223 h
"Cc1ccc(-c2cc(C(F)(F)F)nn2-c2ccc(S(N)(=O)=O)cc2)cc1 [Celecoxib, reference compound]",Inhibition rate,[5],32.83%
same,Swelling degree,[5],10.5 ± 1.5 mg
same,Swelling rate,[5],74.21%
same,"pain response, second phasic response",[6],reduced the pain response
"C[C@]12C[C@@H]3C[C@](C)(C1)C[C@@](NC(=O)Nc1ccc(CN4CCC[C@H](C(=O)NCCCCCCC(=O)NO)C4)cc1F)(C3)C2 [Compound 16d, (S)-1-(4-(3-((1r,3R,5S,7S)-3,5-Dimethyladamantan-1-yl)ureido)-3-fluorobenzyl)-N-(7-(hydroxyamino)-7-oxoheptyl)piperidine-3-carboxamide]","metabolic stability in RLM, column 0",[4],100.00
same,"metabolic stability in RLM, column 10",[4],89.16
same,"metabolic stability in RLM, column 30",[4],79.33
same,"metabolic stability in RLM, column 45",[4],52.13
same,"metabolic stability in RLM, column 60",[4],46.62
same,t1/2 in RLM,[4],0.8165 h
same,HDAC6 inhibitor rate,[3],63%
"C[C@]12C[C@@H]3C[C@](C)(C1)C[C@@](NC(=O)Nc1ccc(C(=O)N4CCC[C@H](C(=O)NCCCCCCC(=O)NO)C4)cc1F)(C3)C2 [Compound 7d, (S)-1-(4-(3-((1r,3R,5S,7S)-3,5-Dimethyladamantan-1-yl)ureido)-3-fluorobenzoyl)-N-(7-(hydroxyamino)-7-oxoheptyl)piperidine-3-carboxamide]",HDAC6 inhibitor rate,[3],63%
"Cc1ccc(NC(=O)Nc2ccc(C(=O)N3CCC[C@H](C(=O)NCCCCCCC(=O)NO)C3)cc2F)cc1F [Compound 28h, (S)-1-(3-Fluoro-4-(3-(3-fluoro-4-methylphenyl)ureido)benzoyl)-N-(7-(hydroxyamino)-7-oxoheptyl)piperidine-3-carboxamide]",IC50,[1],0.7 nM
same,IC50,[2],7.4 nM
same,HDAC6 inhibitor rate,[3],> 91%
